This passage reports Selectivity ratio, Ki and microsomal CLint results from ChEMBL document CHEMBL4387740, “Discovery of ABT-957: 1-Benzyl-5-oxopyrrolidine-2-carboxamides as selective calpain inhibitors with enhanced metabolic stability” (Bioorg Med Chem Lett, 2019).

Data set [1] is filed under the species Homo sapiens. The data set can be described thus: Selectivity ratio, ratio of Ki for CatK (unknown origin) to Ki for Cal1 (unknown origin).
The species named for data set [2] is Homo sapiens. The data set is described as follows: Selectivity ratio, ratio of Ki for CatB (unknown origin) to Ki for Cal1 (unknown origin).
The nature of data set [3]: Selectivity ratio, ratio of Ki for CatS (unknown origin) to Ki for Cal1 (unknown origin). To be noted: Homo sapiens.
Data set [4] concerns the target T1, Calpain-1 catalytic subunit (Homo sapiens, UniProt P07384).
T1 sequence (P07384 whole entry): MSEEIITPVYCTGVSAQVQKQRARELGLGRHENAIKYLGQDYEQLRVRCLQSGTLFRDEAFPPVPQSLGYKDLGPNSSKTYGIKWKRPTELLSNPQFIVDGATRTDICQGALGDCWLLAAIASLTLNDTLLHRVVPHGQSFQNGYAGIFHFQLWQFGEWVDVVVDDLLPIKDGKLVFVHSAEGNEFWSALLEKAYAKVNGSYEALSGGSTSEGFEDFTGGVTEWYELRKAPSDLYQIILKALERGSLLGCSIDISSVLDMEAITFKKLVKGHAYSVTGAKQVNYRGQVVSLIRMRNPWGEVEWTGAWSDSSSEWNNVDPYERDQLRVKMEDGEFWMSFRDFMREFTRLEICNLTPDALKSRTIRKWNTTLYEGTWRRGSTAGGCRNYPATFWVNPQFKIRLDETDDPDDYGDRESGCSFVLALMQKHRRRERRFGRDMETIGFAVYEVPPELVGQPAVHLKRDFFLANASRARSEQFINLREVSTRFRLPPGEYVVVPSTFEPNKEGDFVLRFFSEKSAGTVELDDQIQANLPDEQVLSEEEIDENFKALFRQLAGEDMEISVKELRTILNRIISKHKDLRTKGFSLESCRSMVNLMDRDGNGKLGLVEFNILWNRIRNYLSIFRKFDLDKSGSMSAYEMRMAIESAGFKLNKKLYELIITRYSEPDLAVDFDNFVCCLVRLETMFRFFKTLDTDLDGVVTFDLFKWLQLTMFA
The data set can be described thus: Inhibition of Cal1 (unknown origin).

The species named for data set [5] is Homo sapiens. The data set can be described thus: Selectivity ratio, ratio of Ki for CatL (unknown origin) to Ki for Cal1 (unknown origin).
Data set [6] is described as follows: Intrinsic clearance in human liver microsomes. Type of data set: ADME, Microsome. To be noted: read-out: CLH.
Data set [7] can be described thus: Intrinsic clearance in human liver cytosol. Type of data set: ADME, subcellular. As to conditions: read-out: CLH.
The nature of data set [8]: Intrinsic clearance in rat liver microsomes. To be noted: read-out: CLH. (In general: Liver microsomes are a subcellular fraction often used to study metabolism.)
A short description of data set [9]: Intrinsic clearance in rat liver microsomes. Type of data set: ADME, Microsome. As to conditions: read-out: CLH.

By Ki is commonly meant the dissociation constant of the complex between target and ligand, obtained from inhibition or displacement. High values mean a looser hold on the target, low ones a stronger hold on the target.

As to `NC(=O)C(=O)C(Cc1ccccc1)NC(=O)[C@H]1CCC(=O)N1c1ccccc1` (mixture of isomers), the Selectivity ratio in the data set filed under Homo sapiens [1] stood at 6; in the data set listed under Homo sapiens [2], 28; in [3], 11; in the data set filed under Homo sapiens [5], 7. This compound also showed a Ki in [4] greater than 1350 nM.

In the case of `NC(=O)C(=O)C(Cc1ccccc1)NC(=O)[C@H]1CCC(=O)N1Cc1ccccc1OC(F)(F)F` (mixture of isomers), the Selectivity ratio in the data set listed under Homo sapiens [1] worked out at 33; in the data set filed under Homo sapiens [2], 5; in data set [3], 127; in the data set listed under Homo sapiens [5] it was 41. In data set [4], the inhibitory constant (Ki) worked out at 57 nM.

`O=C(NC1CC1)C(=O)C(Cc1ccccc1)NC(=O)[C@H]1CCC(=O)N1C1Cc2ccccc2C1` (stereo partly specified): the microsomal CLint in [6] is 2 µL/min/mg; in [7] it was 42 µL/min/mg; in data set [8] it was 58 µL/min/mg. In data set [4], the Ki was found to be 545 nM.

As for `O=C(NC1CC1)C(=O)C(Cc1ccccc1)NC(=O)[C@H]1CCC(=O)N1Cc1ccccc1C(F)(F)F` (stereo partly specified), the Selectivity ratio in the data set listed under Homo sapiens [1] was 109; in the data set filed under Homo sapiens [2], 33; in data set [3], greater than 100; in the data set filed under Homo sapiens [5], 162. Besides, the results for the microsomal CLint in data set [6], in data set [7] and in [8] were greater than 1 µL/min/mg, greater than 70 µL/min/mg and greater than 100 µL/min/mg, respectively. The affinity in data set [4], expressed as Ki, was 90 nM.

For `NC(=O)C(=O)C(Cc1ccccc1)NC(=O)[C@H]1CCCC(=O)N1Cc1ccccc1` (mixture of isomers), the Selectivity ratio was 4 in the data set listed under Homo sapiens [1], 14 in the data set listed under Homo sapiens [2], 56 in data set [3] and 21 in the data set filed under Homo sapiens [5]. Also, the Ki in [4] came to 64 nM.

For `O=C1CC[C@H](C(=O)NC(Cc2ccccc2)C(=O)C(=O)NC2CC2)N1` (stereo partly specified), the microsomal CLint in [6] is less than 1 µL/min/mg; in [7] it was less than 23 µL/min/mg; in data set [8], less than 23 µL/min/mg. Moreover, the Ki in data set [4] is 9700 nM.

As for `CONC(=O)C(=O)C(Cc1ccccc1)NC(=O)[C@H]1CCC(=O)N1Cc1ccccc1` (stereo partly specified), the Ki in data set [4] amounted to 4360 nM.

In the case of `COc1cccc(C(F)(F)F)c1CN1C(=O)CC[C@@H]1C(=O)NC(Cc1ccccc1)C(=O)C(N)=O` (mixture of isomers), the Selectivity ratio is 120 in the data set listed under Homo sapiens [1], 51 in the data set filed under Homo sapiens [2], 395 in data set [3] and 387 in the data set listed under Homo sapiens [5]. This compound gave a Ki in data set [4] of 36 nM.

With `O=C(Nc1ccccc1)C(=O)C(Cc1ccccc1)NC(=O)[C@H]1CCC(=O)N1Cc1ccccc1` (stereo partly specified), the microsomal CLint is greater than 100 µL/min/mg in [9], greater than 70 µL/min/mg in data set [6] and 5 µL/min/mg in [7]. The Selectivity ratio in the data set listed under Homo sapiens [1] is 88; in the data set filed under Homo sapiens [2], 296; in data set [3], greater than 400; in the data set filed under Homo sapiens [5], 37. In [4], the affinity corresponds to a Ki of 70 nM.

On to `C[C@H]1C[C@H](C(=O)NC(Cc2ccccc2)C(=O)C(N)=O)N(Cc2ccccc2)C1=O` (mixture of isomers), for which the Selectivity ratio in the data set filed under Homo sapiens [1] is 1; in the data set listed under Homo sapiens [2], 23; in data set [3] it was 3; in the data set listed under Homo sapiens [5] it was 13. Also, the Ki in data set [4] stood at 50 nM.

For the compound `CCCCC(NC(=O)[C@H]1CCC(=O)N1Cc1ccccc1)C(=O)C(N)=O` (mixture of isomers), the Selectivity ratio in the data set listed under Homo sapiens [1] is 6; in the data set filed under Homo sapiens [2], 4; in [3], 41; in the data set listed under Homo sapiens [5] it was 21. Besides, the Ki in data set [4] is 46 nM.

Consider `NC(=O)C(=O)C(Cc1ccccc1)NC(=O)[C@H]1CCC(=O)N1Cc1cccc(C(F)(F)F)c1` (mixture of isomers), for which the Selectivity ratio in the data set filed under Homo sapiens [1] came out at 84; in the data set filed under Homo sapiens [2], 15; in data set [3], 85; in the data set listed under Homo sapiens [5], 11. The same compound showed a Ki in data set [4] of 26 nM.

Regarding `NC(=O)C(=O)C(Cc1ccccc1)NC(=O)[C@H]1CCC(=O)N1Cc1cccc(OC(F)(F)F)c1` (mixture of isomers), the Selectivity ratio in the data set filed under Homo sapiens [1] was 61; in the data set filed under Homo sapiens [2], 7; in data set [3], 76; in the data set filed under Homo sapiens [5], 4. The compound further displayed a Ki in data set [4] of 125 nM.

For `O=C(NCc1ccc(F)cc1)C(=O)C(Cc1ccccc1)NC(=O)[C@H]1CCC(=O)N1Cc1ccccc1` (stereo partly specified), the microsomal CLint in data set [9] is greater than 100 µL/min/mg; in [6] it was greater than 70 µL/min/mg; in data set [7] it was 3 µL/min/mg. The Selectivity ratio in the data set listed under Homo sapiens [1] was 70; in the data set listed under Homo sapiens [2] it was 104; in data set [3], 286; in the data set listed under Homo sapiens [5], 34. Also, the Ki in data set [4] worked out at 48 nM.

Regarding `NC(=O)C(=O)C(Cc1ccccc1)NC(=O)[C@H]1CCC(=O)N1CC1CCCCC1` (mixture of isomers), the Selectivity ratio is less than 1 in the data set filed under Homo sapiens [1], 8 in the data set filed under Homo sapiens [2], 5 in [3] and 2 in the data set listed under Homo sapiens [5]. For the same compound, in data set [4], the Ki worked out at 200 nM.

For `Cn1cc(CN2C(=O)CC[C@@H]2C(=O)NC(Cc2ccccc2)C(=O)C(=O)NC2CN2)cn1` (stereo partly specified), the Ki in data set [4] was determined as 530 nM. Further, the microsomal CLint worked out at 27 µL/min/mg in [7] and 39 µL/min/mg in data set [8].

For `NC(=O)C(=O)C(Cc1ccccc1)NC(=O)C1CCS(=O)(=O)N1Cc1ccccc1` (mixture of isomers), the Selectivity ratio in the data set listed under Homo sapiens [1] stood at 2; in the data set listed under Homo sapiens [2], 56; in data set [3], 7; in the data set listed under Homo sapiens [5] it was 12. The affinity in data set [4] corresponds to a Ki of 268 nM.

As to `NC(=O)C(=O)C(Cc1ccccc1)NC(=O)[C@H]1CCC(=O)N1Cc1ccncc1` (mixture of isomers), the Selectivity ratio in the data set listed under Homo sapiens [1] was found to be 13; in the data set listed under Homo sapiens [2], 16; in [3], 35; in the data set filed under Homo sapiens [5] it was 9. The same compound gave a Ki in [4] of 180 nM.

For the compound `O=C(NC1CC1)C(=O)C(Cc1ccccc1)NC(=O)[C@H]1CCC(=O)N1Cc1ccccc1OC(F)(F)F` (stereo partly specified), the Selectivity ratio in the data set listed under Homo sapiens [1] was greater than 200; in the data set listed under Homo sapiens [2], 22; in [3] it was greater than 200; in the data set filed under Homo sapiens [5] it was 17. Also, the microsomal CLint in [6] is less than 1 µL/min/mg; in data set [7], greater than 70 µL/min/mg; in data set [8], greater than 100 µL/min/mg. In data set [4], the Ki stood at 50 nM.

In the case of `O=C(NC1CC1)C(=O)C(Cc1ccccc1)NC(=O)[C@H]1CCC(=O)N1Cc1ccccc1Cl` (stereo partly specified), the Selectivity ratio in the data set filed under Homo sapiens [1] is 93; in the data set listed under Homo sapiens [2] it was 18; in data set [3], greater than 130; in the data set listed under Homo sapiens [5] it was 57. Besides, the microsomal CLint was less than 1 µL/min/mg in data set [6], greater than 70 µL/min/mg in data set [7] and greater than 100 µL/min/mg in data set [8]. In addition, the Ki in data set [4] is 73 nM.

Consider `Cc1ccc(S(=O)(=O)N2CCC[C@@H]2C(=O)NC(Cc2ccccc2)C(=O)C(N)=O)cc1` (mixture of isomers), for which the Selectivity ratio in the data set filed under Homo sapiens [1] came out at 14; in the data set filed under Homo sapiens [2] it was 72; in data set [3], 14; in the data set listed under Homo sapiens [5], 4. Further, the Ki in data set [4] is 129 nM.

As to `NC(=O)C(=O)C(Cc1ccccc1)NC(=O)[C@H]1CCC(=O)N1Cc1ccccc1C(F)(F)F` (mixture of isomers), the Selectivity ratio is 102 in the data set listed under Homo sapiens [1], 17 in the data set filed under Homo sapiens [2], 524 in data set [3] and 65 in the data set listed under Homo sapiens [5]. Further, the Ki in [4] is 59 nM.

Turning to `NC(=O)C(=O)C(Cc1ccccc1)NC(=O)[C@@H]1CCC(=O)N1Cc1ccccc1` (mixture of isomers), the Selectivity ratio worked out at 17 in the data set listed under Homo sapiens [1], 5 in the data set listed under Homo sapiens [2], 2 in data set [3] and 6 in the data set filed under Homo sapiens [5]. In [4], this compound came in with a Ki of 528 nM.

`CC(C)(C)CN1C(=O)CC[C@@H]1C(=O)NC(Cc1ccccc1)C(=O)C(N)=O` (mixture of isomers): the Selectivity ratio in the data set filed under Homo sapiens [1] is 7; in the data set listed under Homo sapiens [2], 23; in data set [3], 7; in the data set filed under Homo sapiens [5], 7. In addition, the Ki in [4] stood at 1350 nM.

Consider `NC(=O)C(=O)C(Cc1ccccc1)NC(=O)c1cccc(=O)n1Cc1ccccc1` (stereo unspecified), for which the Selectivity ratio in the data set listed under Homo sapiens [1] stood at 2; in the data set listed under Homo sapiens [2] it was 15; in data set [3], 13; in the data set filed under Homo sapiens [5], 4. Also, in data set [4], the affinity corresponds to a Ki of 82 nM.

In the case of `CN1C[C@H](C(=O)NC(Cc2ccccc2)C(=O)C(N)=O)N(Cc2ccccc2)C1=O` (mixture of isomers), the Selectivity ratio in the data set filed under Homo sapiens [1] is 4; in the data set listed under Homo sapiens [2], 72; in data set [3], 2; in the data set filed under Homo sapiens [5] it was 3. This compound registered a Ki in [4] of 101 nM.

For the compound `NC(=O)C(=O)C(Cc1ccccc1)NC(=O)c1cccnc1-n1ccc(-c2ccc(F)cc2)n1` (stereo unspecified), the Selectivity ratio was 18 in the data set filed under Homo sapiens [1], 10 in the data set filed under Homo sapiens [2], greater than 300 in data set [3] and 127 in the data set listed under Homo sapiens [5].
